Experimental data: patent US20040023884A1, “Biologically active peptides from functional domains of bactericidal/permeability-increasing protein and uses thereof” (priority 1993, published 2004)
pKd: −log10 of the molar value. Values after ≈ are worked out from the molar mass of the structure shown. Square brackets hold non-standard residues; d marks the D form. Ends that are not written are not given here. Peptide text beside a SMILES is read from it. Phe(4-NH2) = Nc1ccc(C[C@H](N)C(=O)O)cc1; 1Nal = N[C@@H](Cc1cccc2ccccc12)C(=O)O; Cha = N[C@@H](CC1CCCCC1)C(=O)O

Columns and labels:
[1] = tested on: C. albicans; assay: Radial diffusion fungicidal assay, Candida albicans; type: cell-based; details: radial diffusion
[2] = tested on: Candida albicans; type: cell-based
[3] = tested on: Staphylococcus aureus; assay: Radial diffusion bactericidal assay, Staphylococcus aureus; type: cell-based; details: radial diffusion; PROBIT analysis; S. aureus
[4] = tested on: E. coli 0111:B4 (smooth) bacteria; assay: Radial diffusion bactericidal assay, E. coli 0111:B4; type: cell-based; details: radial diffusion; PROBIT analysis; E. coli O111:B4 (smooth)
[5] = tested on: rough mutant E. coli J5 bacteria; assay: Radial diffusion bactericidal assay, E. coli J5; type: cell-based; details: radial diffusion; PROBIT analysis; E. coli J5 (rough)
Procedure, shortened: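 Wells received 5 or 10 μL of BPI fragment, pre-incubated 3 h at 37 °C. The underlayer agarose carried washed log-phase organisms at 4×10^6 CFU/mL.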

[6] = 3H-heparin binding assay (affinity and capacity); details: for Heparin Capacity: heparin bound at saturation; for pKd: read-out: Heparin Affinity
Procedure, shortened: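 Peptide fragments were bound to PVDF-membrane wells and incubated with 3H-heparin in blocking buffer for 1 h at 4 °C. After washing, bound radioactivity was quantified by liquid scintillation counting, with BSA background subtracted; rBPI23 served as positive control.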

[7] = tested on: RAW 264.7 cells; assay: LPS neutralization cellular proliferation assay, RAW 264.7 cells; type: cell-based, mouse
Experimental: In this assay, mouse RAW 264.7 cells (ATCC Accession No. T1B71), maintained in RPMI 1640 media (GIBCO), supplemented with 10 mM HEPES buffer (pH 7.4), 2 mM L-glutamine, penicillin (100U/mL), streptomcin (100 μg/mL), 0.075% sodium bicarbonate, […] 2-mercaptoethanol and 10% fetal bovine serum (Hyclone, Inc., Logan, Utah), were first induced by incubation in the presence of 50U/mL recombinant mouse y-interferon (Genzyme, Cambridge, Mass.) for 24 h prior to assay. Induced cells were then mechanically collected and centrifuged at 500×g at 4° C. and then resuspended in 50 mL RPMI 1640 media (without supplements), re-centrifuged and again resuspended in RPMI 1640 media (without supplements). The cells were counted and their concentration adjusted to 2×10^5 cells/mL and 100 μL aliquots were added to each well of a 96-well microtitre plate. The cells were then incubated for about 15 hours with E. coli O113 LPS (Control Standard. Assoc. of Cape Cod. Woods Hole, Mass.), which was added in 100 μL/well aliquots at a concentration of […] in serum-free RPMI 1640 media (this concentration being the result of titration experiments in which LPS concentration was varied between 50 pg/mL and 100 ng/mL). This incubation was performed in the absence or presence of BPI functional domain peptides in varying concentrations between 25 ng/mL and 50 μg/mL. Recombinant human BPI was used as a positive control at a concentration of 1 μg/mL. Cell proliferation was quantitatively measured by the addition of 1 μCi/well [^3H]-thymidine 5 hours after the time of initiation of the assay. After the 15-hour incubation, labeled cells were harvested onto glass fiber filters with a cell harvester (Inotech Biosystems, EQ-384, Sample Processing and Filter Counting System, Lansing, Mich.).

CC[C@H](C)[C@H](NC(=O)[C@H](CC(C)C)NC(=O)[C@H](Cc1c[nH]c2ccccc12)NC(=O)[C@H](Cc1ccc(N)cc1)NC(=O)[C@@H](NC(=O)[C@H](CCCCN)NC(=O)[C@H](CO)NC(=O)[C@@H](N)CCCCN)C(C)C)C(=O)N[C@@H](CCC(N)=O)C(=O)N[C@@H](CC(C)C)C(=O)N[C@@H](Cc1ccccc1)C(=O)N[C@@H](Cc1c[nH]cn1)C(=O)N[C@@H](CCCCN)C(=O)N[C@@H](CCCCN)C(=O)O [BPI.134] (H-KSKV[Phe(4-NH2)]WLIQLFHKK-OH; N-terminus and C-terminus assumed)
C. albicans: pmol required for 30 mm^2 zone [1]: 1254.98 pmol | MIC C. alb [2]: 12.50 µg/mL (≈ 6.88 µM) | pmol added to well to achieve a 30 mm^2 bactericidal zone, S. aureus [3]: b (no detectable activity up to 5 μg/well) | pmol added to well to achieve a 30 mm^2 bactericidal zone, E. coli O111:B4 [4]: 580.11 pmol | pmol added to well to achieve a 30 mm^2 bactericidal zone, E. coli J5 [5]: 162.50 pmol

CC[C@H](C)[C@H](N)C(=O)N[C@@H](CCCCN)C(=O)N[C@H](C(=O)N[C@@H](CO)C(=O)NCC(=O)N[C@@H](CCCCN)C(=O)N[C@@H](Cc1cccc2ccccc12)C(=O)N[C@@H](CCCCN)C(=O)N[C@@H](C)C(=O)N[C@@H](CCC(N)=O)C(=O)N[C@@H](Cc1ccccc1)C(=O)N[C@@H](CCCNC(=N)N)C(=O)N[C@@H](Cc1ccccc1)C(=O)N[C@@H](CC(C)C)C(=O)N[C@@H](CCCCN)C(=O)N[C@@H](CCCCN)C(=O)N[C@@H](CO)C(=O)N[C@@H](CCCCN)C(=O)N[C@H](C(=O)NCC(=O)N[C@@H](Cc1c[nH]c2ccccc12)C(=O)N[C@@H](CC(C)C)C(=O)N[C@H](C(=O)N[C@@H](CCC(N)=O)C(=O)N[C@@H](CC(C)C)C(=O)N[C@@H](Cc1ccccc1)C(=O)N[C@@H](Cc1c[nH]cn1)C(=O)N[C@@H](CCCCN)C(=O)N[C@@H](CCCCN)C(=O)O)[C@@H](C)CC)C(C)C)[C@@H](C)CC [BPI.93] (H-IKISGK[1Nal]KAQFRFLKKSKVGWLIQLFHKK-OH)
Heparin Capacity [6]: 291.5 ng | pKd [6]: 6.41 | EC50 (peptide concentration at which the growth inhibitory effect of LPS was reversed by 50%) [7]: 0.9 ± 0.25 µg/mL | IC50 (peptide concentration at which RAW cell growth was inhibited by 50%) [7]: 9.7 ± 0.1 µg/mL (≈ 2.73 µM) | C. albicans: pmol required for 30 mm^2 zone [1]: >980.27 pmol | pmol added to well to achieve a 30 mm^2 bactericidal zone, S. aureus [3]: b (no detectable activity up to 5 μg/well) | pmol added to well to achieve a 30 mm^2 bactericidal zone, E. coli O111:B4 [4]: 10,118.98 pmol | pmol added to well to achieve a 30 mm^2 bactericidal zone, E. coli J5 [5]: 212.87 pmol

KSKVGVLIQLFHKK [BPI.166]
C. albicans: pmol required for 30 mm^2 zone [1]: 170.65 pmol | MIC C. alb [2]: 3.13 µg/mL | pmol added to well to achieve a 30 mm^2 bactericidal zone, S. aureus [3]: b (no detectable activity up to 5 μg/well) | pmol added to well to achieve a 30 mm^2 bactericidal zone, E. coli O111:B4 [4]: 9,586.00 pmol | pmol added to well to achieve a 30 mm^2 bactericidal zone, E. coli J5 [5]: 514.00 pmol

KSKVGWLIFLFHKK [BPI.91]
Heparin Capacity [6]: 181.2 ng | pKd [6]: 6.54 | IC50 (peptide concentration at which RAW cell growth was inhibited by 50%) [7]: — (No proliferation decrease up to 50 μg/ml) | C. albicans: pmol required for 30 mm^2 zone [1]: >3843.54 pmol | pmol added to well to achieve a 30 mm^2 bactericidal zone, S. aureus [3]: b (no detectable activity up to 5 μg/well) | pmol added to well to achieve a 30 mm^2 bactericidal zone, E. coli O111:B4 [4]: b (no detectable activity up to 5 μg/well) | pmol added to well to achieve a 30 mm^2 bactericidal zone, E. coli J5 [5]: 21,014.73 pmol

KSKVGYLIQLFHKK [BPI.139]
C. albicans: pmol required for 30 mm^2 zone [1]: 322.96 pmol | MIC C. alb [2]: 6.25 µg/mL | pmol added to well to achieve a 30 mm^2 bactericidal zone, S. aureus [3]: b (no detectable activity up to 5 μg/well) | pmol added to well to achieve a 30 mm^2 bactericidal zone, E. coli O111:B4 [4]: 3,793.91 pmol | pmol added to well to achieve a 30 mm^2 bactericidal zone, E. coli J5 [5]: 1,261.37 pmol

CC[C@H](C)[C@H](NC(=O)[C@H](CC(C)C)NC(=O)[C@H](Cc1c[nH]c2ccccc12)NC(=O)CNC(=O)[C@@H](NC(=O)[C@H](CCCCN)NC(=O)[C@H](CO)NC(=O)[C@@H](N)CCCCN)C(C)C)C(=O)N[C@@H](CCC(N)=O)C(=O)N[C@@H](Cc1cccc2ccccc12)C(=O)N[C@@H](Cc1ccccc1)C(=O)N[C@@H](Cc1c[nH]cn1)C(=O)N[C@@H](CCCCN)C(=O)N[C@@H](CCCCN)C(=O)O [BPI.143] (H-KSKVGWLIQ[1Nal]FHKK-OH; N-terminus and C-terminus assumed)
C. albicans: pmol required for 30 mm^2 zone [1]: >2838.99 pmol | MIC C. alb [2]: 25.00 µg/mL (≈ 13.9 µM) | pmol added to well to achieve a 30 mm^2 bactericidal zone, S. aureus [3]: b (no detectable activity up to 5 μg/well) | pmol added to well to achieve a 30 mm^2 bactericidal zone, E. coli O111:B4 [4]: b (no detectable activity up to 5 μg/well) | pmol added to well to achieve a 30 mm^2 bactericidal zone, E. coli J5 [5]: 12,388.45 pmol

KSKVGWLIKLFHKK [BPI.92]
Heparin Capacity [6]: 227.3 ng | pKd [6]: 6.18 | C. albicans: pmol required for 30 mm^2 zone [1]: 298.72 pmol | MIC C. alb [2]: 3.13 µg/mL | pmol added to well to achieve a 30 mm^2 bactericidal zone, S. aureus [3]: b (no detectable activity up to 5 μg/well) | pmol added to well to achieve a 30 mm^2 bactericidal zone, E. coli O111:B4 [4]: b (no detectable activity up to 5 μg/well) | pmol added to well to achieve a 30 mm^2 bactericidal zone, E. coli J5 [5]: 331.80 pmol

KSKVKFLIQLFHKK [BPI.138]
C. albicans: pmol required for 30 mm^2 zone [1]: 256.82 pmol | MIC C. alb [2]: 3.13 µg/mL | pmol added to well to achieve a 30 mm^2 bactericidal zone, S. aureus [3]: b (no detectable activity up to 5 μg/well) | pmol added to well to achieve a 30 mm^2 bactericidal zone, E. coli O111:B4 [4]: 995.40 pmol | pmol added to well to achieve a 30 mm^2 bactericidal zone, E. coli J5 [5]: 64.57 pmol

KWKVFKKIEKKSKVGWLIQLFHKK [BPI.149]
C. albicans: pmol required for 30 mm^2 zone [1]: >1397.76 pmol | MIC C. alb [2]: 12.50 µg/mL | pmol added to well to achieve a 30 mm^2 bactericidal zone, S. aureus [3]: b (no detectable activity up to 5 μg/well) | pmol added to well to achieve a 30 mm^2 bactericidal zone, E. coli O111:B4 [4]: 391.00 pmol | pmol added to well to achieve a 30 mm^2 bactericidal zone, E. coli J5 [5]: 44.00 pmol

KSKVKWLIQLFHKK [BPI.97]
Heparin Capacity [6]: 252.2 ng | pKd [6]: 6.12 | C. albicans: pmol required for 30 mm^2 zone [1]: 213.22 pmol | MIC C. alb [2]: 3.13 µg/mL | pmol added to well to achieve a 30 mm^2 bactericidal zone, S. aureus [3]: b (no detectable activity up to 5 μg/well) | pmol added to well to achieve a 30 mm^2 bactericidal zone, E. coli O111:B4 [4]: b (no detectable activity up to 5 μg/well) | pmol added to well to achieve a 30 mm^2 bactericidal zone, E. coli J5 [5]: 295.58 pmol

CC[C@H](C)[C@H](NC(=O)[C@H](CC(C)C)NC(=O)[C@H](Cc1ccc(N)cc1)NC(=O)CNC(=O)[C@@H](NC(=O)[C@H](CCCCN)NC(=O)[C@H](CO)NC(=O)[C@@H](N)CCCCN)C(C)C)C(=O)N[C@@H](CCC(N)=O)C(=O)N[C@@H](CC(C)C)C(=O)N[C@@H](Cc1ccccc1)C(=O)N[C@@H](Cc1c[nH]cn1)C(=O)N[C@@H](CCCCN)C(=O)N[C@@H](CCCCN)C(=O)O [BPI.133] (H-KSKVG[Phe(4-NH2)]LIQLFHKK-OH; N-terminus and C-terminus assumed)
C. albicans: pmol required for 30 mm^2 zone [1]: 284.39 pmol | MIC C. alb [2]: 12.50 µg/mL (≈ 7.4 µM) | pmol added to well to achieve a 30 mm^2 bactericidal zone, S. aureus [3]: b (no detectable activity up to 5 μg/well) | pmol added to well to achieve a 30 mm^2 bactericidal zone, E. coli O111:B4 [4]: b (no detectable activity up to 5 μg/well) | pmol added to well to achieve a 30 mm^2 bactericidal zone, E. coli J5 [5]: 2,316.59 pmol

CC[C@H](C)[C@H](NC(=O)[C@H](CC(C)C)NC(=O)[C@H](CC1CCCCC1)NC(=O)CNC(=O)[C@@H](NC(=O)[C@H](CCCCN)NC(=O)[C@H](CO)NC(=O)[C@@H](N)CCCCN)C(C)C)C(=O)N[C@@H](CCC(N)=O)C(=O)N[C@@H](CC(C)C)C(=O)N[C@@H](Cc1ccccc1)C(=O)N[C@@H](Cc1c[nH]cn1)C(=O)N[C@@H](CCCCN)C(=O)N[C@@H](CCCCN)C(=O)O [BPI.144] (H-KSKVG[Cha]LIQLFHKK-OH; N-terminus and C-terminus assumed)
C. albicans: pmol required for 30 mm^2 zone [1]: 695.19 pmol | MIC C. alb [2]: 12.50 µg/mL (≈ 7.44 µM) | pmol added to well to achieve a 30 mm^2 bactericidal zone, S. aureus [3]: b (no detectable activity up to 5 μg/well) | pmol added to well to achieve a 30 mm^2 bactericidal zone, E. coli O111:B4 [4]: b (no detectable activity up to 5 μg/well) | pmol added to well to achieve a 30 mm^2 bactericidal zone, E. coli J5 [5]: 510.02 pmol

KSKVGWLIQWFHKK [BPI.142]
C. albicans: pmol required for 30 mm^2 zone [1]: 1243.79 pmol | MIC C. alb [2]: 12.50 µg/mL | pmol added to well to achieve a 30 mm^2 bactericidal zone, S. aureus [3]: b (no detectable activity up to 5 μg/well) | pmol added to well to achieve a 30 mm^2 bactericidal zone, E. coli O111:B4 [4]: b (no detectable activity up to 5 μg/well) | pmol added to well to achieve a 30 mm^2 bactericidal zone, E. coli J5 [5]: 922.21 pmol
